Assays:
[1] = target: Activated CDC42 kinase 1 (Homo sapiens) (UniProt Q07912); assay: ACK1 (h) Millipore kinase activity assay; conditions: Compound concentration 1.0 uM
[2] = target: Tyrosine-protein kinase receptor UFO (Homo sapiens) (UniProt P30530); assay: Axl (h) Millipore kinase activity assay; conditions: Compound concentration 1.0 uM
[3] = target: Serine/threonine-protein kinase BRSK2 (Homo sapiens) (UniProt Q8IWQ3); assay: BrSK2 (h) Millipore kinase activity assay; conditions: Compound concentration 1.0 uM
[4] = target: Cyclin-dependent kinase 3 (Homo sapiens) (UniProt Q00526); assay: CDK3/cyclinE (h) Millipore kinase activity assay; conditions: Compound concentration 1.0 uM
Chain of Cyclin-dependent kinase 3 (Homo sapiens) (Q00526 whole entry, looked up): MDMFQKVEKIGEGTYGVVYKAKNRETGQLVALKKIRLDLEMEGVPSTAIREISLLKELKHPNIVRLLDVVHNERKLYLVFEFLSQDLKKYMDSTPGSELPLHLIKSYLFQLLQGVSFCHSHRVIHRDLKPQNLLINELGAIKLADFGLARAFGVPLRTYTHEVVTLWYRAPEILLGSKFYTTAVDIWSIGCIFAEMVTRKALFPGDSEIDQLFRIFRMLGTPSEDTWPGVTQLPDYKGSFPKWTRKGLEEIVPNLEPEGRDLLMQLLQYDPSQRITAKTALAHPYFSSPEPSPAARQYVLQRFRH

[5] = target: Vascular endothelial growth factor receptor 1 (Homo sapiens) (UniProt P17948); assay: Flt1 (h) Millipore kinase activity assay; conditions: Compound concentration 1.0 uM
[6] = target: Vascular endothelial growth factor receptor 3 (Homo sapiens) (UniProt P35916); assay: Flt4 (h) Millipore kinase activity assay; conditions: Compound concentration 1.0 uM
Chain of Vascular endothelial growth factor receptor 3 (Homo sapiens) (P35916 whole entry): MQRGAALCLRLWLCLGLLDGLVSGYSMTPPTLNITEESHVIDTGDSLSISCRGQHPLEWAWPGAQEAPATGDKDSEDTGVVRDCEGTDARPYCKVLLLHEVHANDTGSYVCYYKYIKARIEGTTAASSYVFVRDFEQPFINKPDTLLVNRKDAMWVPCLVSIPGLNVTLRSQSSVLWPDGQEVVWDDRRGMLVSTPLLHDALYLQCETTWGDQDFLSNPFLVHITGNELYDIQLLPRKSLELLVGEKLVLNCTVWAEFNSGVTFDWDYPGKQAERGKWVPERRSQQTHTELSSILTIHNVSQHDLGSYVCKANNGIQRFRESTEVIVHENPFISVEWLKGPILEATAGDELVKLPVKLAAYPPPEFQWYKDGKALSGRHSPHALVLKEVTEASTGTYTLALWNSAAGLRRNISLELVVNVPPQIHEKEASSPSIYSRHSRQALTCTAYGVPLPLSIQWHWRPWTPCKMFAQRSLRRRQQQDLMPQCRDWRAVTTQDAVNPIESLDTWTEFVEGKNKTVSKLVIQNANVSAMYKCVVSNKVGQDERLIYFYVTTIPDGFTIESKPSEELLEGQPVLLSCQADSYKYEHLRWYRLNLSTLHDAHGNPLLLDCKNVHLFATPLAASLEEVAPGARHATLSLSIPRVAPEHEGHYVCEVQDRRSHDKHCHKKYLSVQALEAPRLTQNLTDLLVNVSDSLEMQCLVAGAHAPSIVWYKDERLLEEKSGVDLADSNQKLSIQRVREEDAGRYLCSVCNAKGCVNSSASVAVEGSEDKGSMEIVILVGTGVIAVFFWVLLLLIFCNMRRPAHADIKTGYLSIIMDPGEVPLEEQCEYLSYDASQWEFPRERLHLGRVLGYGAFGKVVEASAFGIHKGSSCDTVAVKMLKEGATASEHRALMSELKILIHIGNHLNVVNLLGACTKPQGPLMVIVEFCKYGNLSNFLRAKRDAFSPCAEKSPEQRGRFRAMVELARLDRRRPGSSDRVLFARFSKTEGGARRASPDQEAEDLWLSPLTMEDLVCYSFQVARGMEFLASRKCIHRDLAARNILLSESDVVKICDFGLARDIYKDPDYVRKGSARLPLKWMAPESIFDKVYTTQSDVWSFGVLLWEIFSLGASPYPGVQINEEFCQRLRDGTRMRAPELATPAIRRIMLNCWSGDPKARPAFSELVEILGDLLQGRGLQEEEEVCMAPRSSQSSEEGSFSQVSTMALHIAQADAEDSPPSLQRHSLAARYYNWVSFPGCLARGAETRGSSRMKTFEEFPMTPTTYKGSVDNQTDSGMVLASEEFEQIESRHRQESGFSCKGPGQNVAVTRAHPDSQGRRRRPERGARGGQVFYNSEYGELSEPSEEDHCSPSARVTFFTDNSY

[7] = target: Serine/threonine-protein kinase pim-1 (Homo sapiens) (UniProt P11309); assay: Pim-1 (h) Millipore kinase activity assay; conditions: Compound concentration 1.0 uM
[8] = target: Protein kinase C beta type (Homo sapiens) (UniProt P05771); assay: PKCbetaI (h) Millipore kinase activity assay; conditions: Compound concentration 1.0 uM
[9] = target: Tyrosine-protein kinase FRK (Homo sapiens) (UniProt P42685); assay: PTK5 (h) Millipore kinase activity assay; conditions: Compound concentration 1.0 uM
[10] = target: Serine/threonine-protein kinase 33 (Homo sapiens) (UniProt Q9BYT3); assay: STK33 (h) Millipore kinase activity assay; conditions: Compound concentration 1.0 uM
[11] = target: High affinity nerve growth factor receptor (Homo sapiens) (UniProt P04629); assay: TrkA (h) Millipore kinase activity assay; conditions: Compound concentration 1.0 uM
[12] = target: Glutamate receptor ionotropic, kainate (Rattus norvegicus) (UniProt P22756+Q01812+P42260+P42264+Q63273); assay: Inhibition of Glutamate, Kainate at 10 µM in the Eurofins-Panlabs radioligand binding assay (Eurofins_assay_232700); conditions: Compound concentration 10.0 uM
[13] = target: Histamine H3 receptor (Homo sapiens) (UniProt Q9Y5N1); conditions: Compound concentration 10.0 uM
[14] = target: Alpha-1A adrenergic receptor (Homo sapiens) (UniProt P35348); conditions: Rattus norvegicus; Compound concentration 10.0 uM
[15] = target: Endothelin-1 receptor (Homo sapiens) (UniProt P25101); conditions: Compound concentration 10.0 uM
[16] = system: Tyrosine-protein kinase ABL1 (Homo sapiens), P00519 [H396P]; conditions: Compound concentration 1000.0 nM
[17] = target: Activin receptor type-1B (Homo sapiens) (UniProt P36896); conditions: Compound concentration 1000.0 nM
[18] = target: BMP-2-inducible protein kinase (Homo sapiens) (UniProt Q9NSY1); conditions: Compound concentration 1000.0 nM
[19] = target: Macrophage colony-stimulating factor 1 receptor (Homo sapiens) (UniProt P07333); conditions: Compound concentration 1000.0 nM
[20] = target: Serine/threonine-protein kinase DCLK3 (Homo sapiens) (UniProt Q9C098); conditions: Compound concentration 1000.0 nM
[21] = target: Ephrin type-B receptor 1 (Homo sapiens) (UniProt P54762); conditions: Compound concentration 1000.0 nM
[22] = system: Receptor-type tyrosine-protein kinase FLT3 (Homo sapiens), P36888 [D835V]; conditions: Compound concentration 1000.0 nM
[23] = target: Serine/threonine-protein kinase ICK (Homo sapiens) (UniProt Q9UPZ9); conditions: Compound concentration 1000.0 nM
[24] = system: Mast/stem cell growth factor receptor Kit (Homo sapiens), P10721 [V559D,V654A]; conditions: Compound concentration 1000.0 nM
Chain of Mast/stem cell growth factor receptor Kit (Homo sapiens), P10721 [V559D,V654A] (P10721 whole entry V559D/V654A, the tested form may be a part): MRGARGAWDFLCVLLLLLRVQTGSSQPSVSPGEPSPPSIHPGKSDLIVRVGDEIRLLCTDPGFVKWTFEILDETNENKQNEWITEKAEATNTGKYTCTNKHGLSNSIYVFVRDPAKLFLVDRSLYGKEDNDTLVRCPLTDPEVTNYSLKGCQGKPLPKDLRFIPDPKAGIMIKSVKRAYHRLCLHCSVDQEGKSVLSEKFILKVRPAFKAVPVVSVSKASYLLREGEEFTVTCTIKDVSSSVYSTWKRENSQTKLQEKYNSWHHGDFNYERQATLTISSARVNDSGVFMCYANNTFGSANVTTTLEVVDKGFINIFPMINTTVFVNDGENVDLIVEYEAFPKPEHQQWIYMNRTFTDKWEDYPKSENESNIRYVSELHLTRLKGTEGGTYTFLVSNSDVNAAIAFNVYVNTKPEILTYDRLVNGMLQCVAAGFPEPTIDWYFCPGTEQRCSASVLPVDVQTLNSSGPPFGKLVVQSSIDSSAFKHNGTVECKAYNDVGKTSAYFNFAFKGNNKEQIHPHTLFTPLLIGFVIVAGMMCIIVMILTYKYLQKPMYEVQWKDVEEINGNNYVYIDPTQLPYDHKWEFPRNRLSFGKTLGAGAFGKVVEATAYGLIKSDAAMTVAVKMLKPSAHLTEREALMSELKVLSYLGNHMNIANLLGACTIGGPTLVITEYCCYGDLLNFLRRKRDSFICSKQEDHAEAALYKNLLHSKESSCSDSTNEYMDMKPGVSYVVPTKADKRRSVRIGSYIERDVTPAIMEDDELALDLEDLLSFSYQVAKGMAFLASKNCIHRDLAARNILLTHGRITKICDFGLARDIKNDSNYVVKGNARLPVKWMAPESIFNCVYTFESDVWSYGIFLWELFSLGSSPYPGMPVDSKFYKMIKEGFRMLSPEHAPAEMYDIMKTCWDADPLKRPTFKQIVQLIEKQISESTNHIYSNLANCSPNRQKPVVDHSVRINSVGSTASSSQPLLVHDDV

[25] = target: LIM domain kinase 2 (Homo sapiens) (UniProt P53671); conditions: Compound concentration 1000.0 nM
Chain of LIM domain kinase 2 (Homo sapiens) (P53671 whole entry, looked up, the tested form may be a part): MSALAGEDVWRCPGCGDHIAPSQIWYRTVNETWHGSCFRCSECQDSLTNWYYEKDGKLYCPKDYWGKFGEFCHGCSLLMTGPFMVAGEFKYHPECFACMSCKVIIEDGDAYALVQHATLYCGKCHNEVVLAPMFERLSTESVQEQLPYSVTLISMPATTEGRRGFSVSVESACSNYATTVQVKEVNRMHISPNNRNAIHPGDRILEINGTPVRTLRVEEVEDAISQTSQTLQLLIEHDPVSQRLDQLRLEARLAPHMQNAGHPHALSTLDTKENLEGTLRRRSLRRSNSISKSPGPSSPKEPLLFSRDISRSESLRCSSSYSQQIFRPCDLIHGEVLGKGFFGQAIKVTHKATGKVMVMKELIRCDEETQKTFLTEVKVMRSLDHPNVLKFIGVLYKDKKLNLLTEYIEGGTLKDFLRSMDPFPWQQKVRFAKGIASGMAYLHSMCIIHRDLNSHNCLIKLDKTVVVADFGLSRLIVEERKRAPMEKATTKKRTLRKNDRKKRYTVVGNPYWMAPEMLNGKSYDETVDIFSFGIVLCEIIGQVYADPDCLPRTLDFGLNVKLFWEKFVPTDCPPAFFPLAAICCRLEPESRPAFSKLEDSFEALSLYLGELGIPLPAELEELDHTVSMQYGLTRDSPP

[26] = target: Misshapen-like kinase 1 (Homo sapiens) (UniProt Q8N4C8); conditions: Compound concentration 1000.0 nM
Chain of Misshapen-like kinase 1 (Homo sapiens) (Q8N4C8 whole entry, looked up): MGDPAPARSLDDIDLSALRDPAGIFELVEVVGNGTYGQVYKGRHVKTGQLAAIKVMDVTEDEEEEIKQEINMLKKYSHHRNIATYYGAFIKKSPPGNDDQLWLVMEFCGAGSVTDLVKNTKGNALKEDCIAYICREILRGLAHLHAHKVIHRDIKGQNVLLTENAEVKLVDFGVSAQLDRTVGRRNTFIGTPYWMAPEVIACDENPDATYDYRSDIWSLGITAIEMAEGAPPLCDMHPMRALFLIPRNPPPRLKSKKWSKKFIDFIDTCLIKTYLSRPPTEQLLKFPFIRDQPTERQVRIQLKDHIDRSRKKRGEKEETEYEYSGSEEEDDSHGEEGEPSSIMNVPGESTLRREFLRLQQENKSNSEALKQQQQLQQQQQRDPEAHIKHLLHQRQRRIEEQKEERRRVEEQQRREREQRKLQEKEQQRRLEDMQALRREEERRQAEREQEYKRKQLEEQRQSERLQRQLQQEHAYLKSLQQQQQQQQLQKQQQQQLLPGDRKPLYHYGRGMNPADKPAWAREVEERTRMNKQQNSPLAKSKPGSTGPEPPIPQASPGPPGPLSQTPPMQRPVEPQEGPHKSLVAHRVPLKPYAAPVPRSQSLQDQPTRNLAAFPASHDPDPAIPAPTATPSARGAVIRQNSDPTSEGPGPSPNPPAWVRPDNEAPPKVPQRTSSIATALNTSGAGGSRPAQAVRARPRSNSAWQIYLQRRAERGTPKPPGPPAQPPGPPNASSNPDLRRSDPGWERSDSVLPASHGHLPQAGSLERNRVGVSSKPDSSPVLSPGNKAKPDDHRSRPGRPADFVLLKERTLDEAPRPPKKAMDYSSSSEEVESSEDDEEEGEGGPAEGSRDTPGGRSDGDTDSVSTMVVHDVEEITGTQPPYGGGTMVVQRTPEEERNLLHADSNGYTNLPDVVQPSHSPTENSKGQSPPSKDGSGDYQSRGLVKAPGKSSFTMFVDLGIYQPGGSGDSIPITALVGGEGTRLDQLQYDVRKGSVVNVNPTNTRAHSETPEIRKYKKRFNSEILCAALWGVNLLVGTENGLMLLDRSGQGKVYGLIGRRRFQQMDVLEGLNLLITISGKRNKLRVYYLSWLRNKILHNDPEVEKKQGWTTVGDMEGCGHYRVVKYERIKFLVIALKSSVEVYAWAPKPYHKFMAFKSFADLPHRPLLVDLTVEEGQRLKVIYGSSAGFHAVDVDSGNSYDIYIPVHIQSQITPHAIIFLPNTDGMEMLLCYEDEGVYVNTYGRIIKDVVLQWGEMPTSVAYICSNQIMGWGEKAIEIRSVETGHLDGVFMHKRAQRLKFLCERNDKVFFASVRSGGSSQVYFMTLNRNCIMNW

[27] = target: Serine/threonine-protein kinase 26 (Homo sapiens) (UniProt Q9P289); conditions: Compound concentration 1000.0 nM
Chain of Serine/threonine-protein kinase 26 (Homo sapiens) (Q9P289 2-416 limits assumed): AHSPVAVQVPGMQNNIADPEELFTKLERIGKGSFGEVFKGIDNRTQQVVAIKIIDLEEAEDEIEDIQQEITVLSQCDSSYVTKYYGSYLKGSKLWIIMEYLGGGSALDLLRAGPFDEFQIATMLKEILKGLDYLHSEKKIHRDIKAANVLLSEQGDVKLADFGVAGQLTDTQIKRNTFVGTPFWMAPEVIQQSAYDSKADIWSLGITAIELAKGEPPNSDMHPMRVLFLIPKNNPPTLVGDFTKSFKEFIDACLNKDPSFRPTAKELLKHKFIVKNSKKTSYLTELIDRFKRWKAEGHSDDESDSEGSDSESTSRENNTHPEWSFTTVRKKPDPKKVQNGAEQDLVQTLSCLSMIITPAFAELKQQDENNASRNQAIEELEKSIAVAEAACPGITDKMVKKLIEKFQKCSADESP

[28] = target: Myosin light chain kinase 2, skeletal/cardiac muscle (Homo sapiens) (UniProt Q9H1R3); conditions: Compound concentration 1000.0 nM
[29] = target: Serine/threonine-protein kinase Nek1 (Homo sapiens) (UniProt Q96PY6); conditions: Compound concentration 1000.0 nM
[30] = target: Mitogen-activated protein kinase 13 (Homo sapiens) (UniProt O15264); conditions: Compound concentration 1000.0 nM
[31] = target: Mitogen-activated protein kinase 12 (Homo sapiens) (UniProt P53778); conditions: Compound concentration 1000.0 nM
[32] = target: Phosphatidylinositol 4-kinase beta (Homo sapiens) (UniProt Q9UBF8); conditions: Compound concentration 1000.0 nM
[33] = target: 1-phosphatidylinositol 3-phosphate 5-kinase (Homo sapiens) (UniProt Q9Y2I7); conditions: Compound concentration 1000.0 nM
[34] = target: Serine/threonine-protein kinase PLK1 (Homo sapiens) (UniProt P53350); conditions: Compound concentration 1000.0 nM
[35] = target: Serine/threonine-protein kinase D1 (Homo sapiens) (UniProt Q15139); conditions: Compound concentration 1000.0 nM
[36] = target: Proto-oncogene tyrosine-protein kinase receptor Ret (Homo sapiens) (UniProt P07949); conditions: Compound concentration 1000.0 nM
[37] = target: Serine/threonine-protein kinase RIO3 (Homo sapiens) (UniProt O14730); conditions: Compound concentration 1000.0 nM
[38] = target: Receptor-interacting serine/threonine-protein kinase 2 (Homo sapiens) (UniProt O43353); conditions: Compound concentration 1000.0 nM
[39] = target: SRSF protein kinase 2 (Homo sapiens) (UniProt P78362); conditions: Compound concentration 1000.0 nM
[40] = target: Serine/threonine-protein kinase tousled-like 2 (Homo sapiens) (UniProt Q86UE8); conditions: Compound concentration 1000.0 nM
[41] = target: Tyrosine-protein kinase TXK (Homo sapiens) (UniProt P42681); conditions: Compound concentration 1000.0 nM
[42] = target: Serine/threonine-protein kinase 32B (Homo sapiens) (UniProt Q9NY57); conditions: Compound concentration 1000.0 nM
[43] = target: Mitogen-activated protein kinase kinase kinase 20 (Homo sapiens) (UniProt Q9NYL2); conditions: Compound concentration 1000.0 nM
[44] = target: 5-hydroxytryptamine receptor 5A (Homo sapiens) (UniProt P47898); conditions: Compound concentration 10.0 uM

CC1=C(C#N)C(c2ccc3[nH]nc(C)c3c2)C(C#N)=C(C)N1 [BAY-474]
inactive: inhibition [1] 2% | inhibition [2] 12% | inhibition [3] 21% | inhibition [4] -4% | inhibition [5] 69% | inhibition [6] 26% | inhibition [7] -3% | inhibition [8] -4% | inhibition [9] 2% | inhibition [10] 2% | inhibition [11] 27% | inhibition [12] -4% | inhibition [13] -3.35% | inhibition [14] 1% | inhibition [15] 7%

CC1=C(C#N)[C@@H](c2ccc3[nH]nc(C)c3c2)C(C#N)=C(c2ccc(Cl)cc2)N1 [BAY-827]
inactive: residual activity [16] 100% | residual activity [17] 100% | residual activity [18] 100% | residual activity [19] 100% | residual activity [20] 71.3% | residual activity [21] 100% | residual activity [22] 89.7% | residual activity [23] 76.2% | residual activity [24] 100% | residual activity [25] 91.1% | residual activity [26] 77% | residual activity [27] 100% | residual activity [28] 91.4% | residual activity [29] 100% | residual activity [30] 100% | residual activity [31] 58.6% | residual activity [32] 95.1% | residual activity [33] 100% | residual activity [34] 100% | residual activity [35] 81.1% | residual activity [36] 100% | residual activity [37] 100% | residual activity [38] 92% | residual activity [39] 100% | residual activity [40] 100% | residual activity [41] 88.1% | residual activity [42] 100% | residual activity [43] 93.6% | inhibition [44] 4.53%
